Patent publication US7744867B2, “PTPase inhibitors and method of using same” (The Cleveland Clinic Foundation, priority 2001, dated 2010)

How the values were obtained:
recombinant PRL-2 = target: T1, recombinant PRL-2 (Homo sapiens, UniProt Q12974); test: In vitro PTPase assay with recombinant PRL; format: biochemical; conditions: washing process / stable complex
T1 construct: made in house; host or cells: E. coli DH5α
T1 sequence (Q12974 1-167): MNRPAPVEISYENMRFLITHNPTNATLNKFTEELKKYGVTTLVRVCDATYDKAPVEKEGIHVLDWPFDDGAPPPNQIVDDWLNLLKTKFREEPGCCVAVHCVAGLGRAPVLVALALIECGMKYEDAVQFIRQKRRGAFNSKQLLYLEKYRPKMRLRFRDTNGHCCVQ
Protocol: In vitro PTPase activities were measured using the commercial protein tyrosine phosphatase assay kit (UBI) following established procedure. […] 100 μl of Malachite Green solution was added and incubated for 5 minutes, and the absorbance at 660 nm was measured after 5 minutes.
Recombinant GST fusion proteins of human PRL-1, 2 and 3 phosphatases were purified with glutathione beads from DH5α bacteria transformed by pGEX vectors containing cDNA fragments encoding the human PRLs which were generated by RT-PCR from H9 cells and confirmed by sequence analysis. Activities of the purified recombinant PRL proteins in dephosphorylating DiFMUP in the absence or presence of various inhibitors were measured following established procedure.
To assess whether sodium stibogluconate is an inhibitor of oncogenic PRL phosphatases, its effects on the PTPase activity of recombinant PRLs were evaluated by in vitro PTPase assays.

Baf3 cells = test: IL-3-induced proliferation of Baf3 cells; format: cell-based, murine; conditions: at 1,000 μg/ml
Protocol: The murine hematopoietic cell line Baf3 was maintained in RPMI 1640 medium supplemented with 10% fetal calf serum (FCS) and murine IL-3 (20 units/ml) as described previously. Human myeloid cell line TF-1 was maintained in RPMI 1640 supplemented with 10% FCS and 40 ng/ml of recombinant human GM-CSF as described previously. For cell proliferation assays, cells were washed in 10% FCS medium twice, resuspended in 10% FCS medium, incubated at 37° C. for 16 hours and then cultured at 37° C. in 10% FCS medium containing various amounts of cytokines, sodium stibogluconate, or PSbT for 3-6 days as indicated. The cell numbers in proliferation assays were determined by an MTT assay or by microscopic cell counting as indicated.

[1] = Tolerability in nude mice (viability, body weight, appearance); format: in vivo
Protocol: The effective dosage of sodium stibogluconate against WM9 and DU145 xenografts is well tolerated in nude mice. […] Thus dosage is much higher than the standard dose for Leishmaniasis (20 mg Sb/kg, daily). As an initial step to assess the toxicity of such a high dosage of sodium stibogluconate in nude mice, its effect on the viability and body weights of WM9 xenografts nude mice during the 25 day period of the study was determined.

WM35 cells (Melanoma) = test: Growth inhibition of human tumor cell lines; format: cell-based; conditions: SS 12.5 μg/ml, IFNα 1,000 u/ml, alone or combined
[2] = test system: WiT49-N1 cells (Wilms tumor); test: Growth inhibition of human tumor cell lines (MTT); format: cell-based; conditions: SS 12.5 μg/ml, IFNα 1,000 u/ml, alone or combined
From the text: FIG. 9 illustrates growth inhibition of human cell lines of non-hematopoietic malignancies by sodium stibogluconate and/or IFNα. Percentage of growth inhibition of WM9 (A), DU145 (B), MDA231 (C) and WiT49-N1 (D) in the absence or presence of various amounts of sodium stibogluconate and/or IFNα (1,000 u/ml) in day 6 cultures as measured by MTT assays.

[3] = test system: C42 cells (Prostate cancer); test: Growth inhibition of human tumor cell lines; format: cell-based; conditions: SS 12.5 μg/ml, IFNα 1,000 u/ml, alone or combined
WM9 cells = test: Apoptotic cells by Annexin V/propidium iodide assay (fluorescent microscopy); format: cell-based, human; conditions: 3 days, control 5%
Protocol: Detection of apoptotic cells by Annexin V/propidium iodide assay. Annexin V staining of exposed membrane phospholipid phosphatidylserine (PS) was done using the Annexin V assay kit (Pharmingen, San Diego, Calif.). Briefly, U266 or WM9 cells were cultured in the 10% FCS RPMI 1640 medium in the absence or presence of sodium stibogluconate, IFNα, or both for 3 days. Cells were then washed in PBS twice and stained in binding buffer (10 mM Hepes, pH 7.4; 140 mM NaCl; 2.5 mM CaCl2) containing Annexin V-FITC and propidium iodide for 15 min. The reaction was stopped by adding 10 volumes of binding buffer and analyzed by FACS (Becton Dickinson Facsvantage) or fluorescent microscopy.

| Compound | reversibility of PRL-2 inactivation (recombinant PRL-2) | IL-3-induced Baf3 growth (Baf3 cells) | tolerability ([1]; 12 mg Sb daily (440 mg Sb/kg daily), s.c., 25 day study) | daily dose that mice could tolerate ([1]; pilot study, approximately 700-800 mg Sb/kg) [mg Sb] | % of growth inhibition by day 6 (±s.d.) (WM35 cells (Melanoma)) | % of growth inhibition by day 6 (±s.d.) [2] | % of growth inhibition by day 6 (±s.d.) [3] | percentage of apoptotic cells (WM9 cells) [%] |
| --- | --- | --- | --- | --- | --- | --- | --- | --- |
| O.O.O.O.O.O.O.O.O.O=C([O-])[C@@H]1[O][Sb]2([O-])([O][Sb]34([OH])[O][C@H]([C@H](O)CO)[C@H]([O]3)[C@H](C(=O)[O-])[O]4)[O][C@H]([C@H](O)CO)[C@@H]1[O]2.[Na+].[Na+].[Na+] [sodium stibogluconate] | irreversibly inhibits | suppressed | well tolerated with no serious side effect | 20 | – | – | – | – |
| IFNα | – | – | – | – | 19 (3) % | 22 (11) % | +19 (30) % | 15 |
